# Data taken from patent US20160263073A1, “MONOACYLGLYCEROLS FOR USE IN THE TREATMENT OF MALABSORPTION HAVING A MECHANICAL BASIS” (NESTEC S.A., priority 2013, published 2016).
# How the values were obtained:
# [1] = lipid maldigestion or malabsorption rat model (XENICAL-induced): EPA level in red blood cell lipids; assay type: in vivo; details: rats; for level of EPA incorporated in red blood cells: day 7, with XENICAL (ORLISTAT), FIG. 2
# Method: The concept was tested in a lipid maldigestion or malabsorption rat model. The maldigestion or malabsorption condition was obtained using XENICAL® (ORLISTAT), a pancreatic and gastric lipases inhibitor (tetrahydrolipstatin; see FIG. 7). Rats were fed during 21 days with long-chain polyunsaturated fatty acid (LC-PUFA) supplements containing mainly eicosapentaenoic (EPA) acid. Fish oil was used as a source of triacylglycerols, and different EPA glycerides were evaluated. XENICAL® (ORLISTAT) was given at a level sufficient to decrease lipid absorption by 40%. A group receiving fish oil without XENICAL® (ORLISTAT) was used as a positive control. At different time intervals (D3, D7, […]), the fatty acid profiles of red blood cell and plasma lipids were determined. At the end of the experiment, the fatty acid profiles of different tissues were determined. The main objective was to follow the level of EPA in red blood cell and plasma lipids. The main comparison evaluated was the difference in EPA level between the group receiving EPA-containing sn-1(3) MAG in combination with XENICAL® (ORLISTAT) and the positive control group (fish oil+XENICAL® (ORLISTAT)). […] This comparison corroborates the validity of the model.
# [2] = clinical study: sn-1(3) MAG versus fish oil (TAG) in delivering EPA under lipid maldigestion induced by XENICAL; assay type: in vivo, human
# Method: This clinical study compared the efficacy of sn-1(3) MAG and fish oil (TAG) in delivering EPA in humans under lipid maldigestion conditions induced by XENICAL® (ORLISTAT). The comparison was tested in volunteers having a BMI of 37-40 kg/m^2 and treated with XENICAL® (ORLISTAT) to induce lipid maldigestion or not treated with XENICAL® (ORLISTAT). The primary objective was to assess accretion of EPA in erythrocytes over 21 days when consumed as fish oil (TAG) or sn-1(3) MAG. The secondary objectives were to assess accretion of EPA in plasma over 21 days and also to assess the pharmacokinetics of EPA after an acute dose either in the form of sn-1(3) MAG or TAG (AUC in chylomicrons over 10 hours postprandial).
SMILES,"EPA incorporation in red blood cells ([1]; day 7, fish oil with XENICAL compared with fish oil without XENICAL)","chronic effect: accretion of EPA in erythrocytes after 21 days ([2]; humans, with XENICAL, in comparison to fish oil and XENICAL, p=0.0001, FIG. 5)","chronic effect: accretion of EPA in plasma after 21 days ([2]; humans, with XENICAL, relative to fish oil and XENICAL, p=0.0003, FIG. 6)","carrier for EPA ([2]; obese subjects treated with XENICAL, compared with fish oil (TAG))",incorporation of LC-PUFAs in tissue ([1]; conditions of lipid maldigestion or malabsorption),"level of EPA incorporated in red blood cells ([1]; compared with fish oil in combination with XENICAL, all P values lower than 0.05)",level of EPA incorporated in red blood cells ([1]; compared with the fish oil group without XENICAL)
"CCCCCCCCCCC[C@@H](C[C@@H]1OC(=O)[C@H]1CCCCCC)OC(=O)[C@H](CC(C)C)NC=O [XENICAL® (ORLISTAT), tetrahydrolipstatin, reference compound]",decreases EPA incorporation in red blood cells,,,,,,
"CC/C=C\C/C=C\C/C=C\C/C=C\C/C=C\CCCC(=O)OCC(O)CO (stereo not shown) [sn-1(3) MAG, sn-1(3)-monoeicosapentaenoylglycerol]",,statistically significant,statistically significant,better carrier for EPA than fish oil (TAG),improved,statistically higher,even higher than the fish oil group
